Biological target: Metallo-beta-lactamase type 2 (Klebsiella pneumoniae, UniProt C7C422)
Assay: Inhibition of his6-tagged NDM-1 (unknown origin) expressed in Escherichia coli BL21-DE3 incubated for 16 hrs

Chain of Metallo-beta-lactamase type 2 (C7C422 whole entry): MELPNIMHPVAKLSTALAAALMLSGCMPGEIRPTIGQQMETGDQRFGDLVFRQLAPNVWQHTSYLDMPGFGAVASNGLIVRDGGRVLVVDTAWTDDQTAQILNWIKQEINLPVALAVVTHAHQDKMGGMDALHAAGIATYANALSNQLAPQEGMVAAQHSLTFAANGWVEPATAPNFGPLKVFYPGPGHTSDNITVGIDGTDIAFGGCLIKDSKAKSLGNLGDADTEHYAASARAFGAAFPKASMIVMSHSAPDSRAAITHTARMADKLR

Structure (SMILES): SC[C@H]1SC[C@@H]2Nc3ccccc3N21
- IC50: 770 nM
